Test results: patent US20150210717A1, “SPECIFIC INHIBITORS OF PROTEIN P21 AS THERAPEUTIC AGENTS” (BADEN-WÜRTTEMBERG STIFTUNG GMBH, priority 2012, published 2015)

What was measured:
p21 promoter = assay: Cell-based p21 promoter luciferase screen with IC50 validation in H1299 cells with doxycycline-inducible p53; details: luciferase under p21 promoter, about 20 hours
Protocol: A cell-based screen was carried out to identify p21 inhibitors (FIG. 1a). H1299 cells (a cell line having a deletion in the p53 locus) were used. The H1299 cells contain a TetOn system for the inducible expression of p53. In addition, they contain luciferase under the control of the p21 promoter, which is activated by p53. Intracellular p53 expression was induced with doxycycline (0.5 μg/ml). Immediately thereafter, cells were exposed to test substances (5 μM) of the ChemBioNet collection (Leibniz Institut far Molekulare Pharmakologie, Berlin). About 20 hours later, cells were lysed and luciferase activity was determined. […]

p21-mRNA = p21-mRNA expression by qPCR in organs of Nothobranchius furzeri after intraperitoneal injection; assay type: in vivo; details: all tissues tested, 10 μM intraperitoneal, 48 h post treatment
Protocol: FIG. 6: Decreased p21-mRNA expression in different organs of model organism Nothobranchius furzeri in response to I18-inhibitor treatment. p21-mRNA expression in different organs was analysed by quantitative PCR (qPCR) in response to treatment with the p21-inhibitor I18. Upper panel depicts the fold expression difference of p21-mRNA relative to tbp (TATA-box binding protein). Lower panel depicts fold expression of p21-mRNA relative to control (DMSO-treated animals). Note that there is an over 2-fold reduction in all tissues tested indicating the efficiency of p21-inhibitors across different species. 10 weeks old Nothobranchius furzeri were either injected intraperitoneal with I18-compound [10 μM] or with DMSO as control and sacrificed 48 h post treatment. RNA of various tissues was harvested and p21-mRNA expression was measured using quantitative PCR (qPCR). Fold expression was calculated relative to house-keeping gene tbp (TATA-box binding protein) (FIG. 6, upper panel) or control animals (FIG. 6, lower panel).

[1] = test system: wound healing in C57BL/6 mice; assay: Wound healing after skin biopsy in C57BL/6 mice, intradermal injection; assay type: in vivo
Text: FIG. 4: I-18 treatment improves wound healing in 24 week C57BL/6 mice Skin-biopsies (4-5 mm) were taken at Day 0 (D0) and lesions were either treated with 118 inhibitor (right panel) or DMSO treated as control (left panel).
FIG. 5: Depicts a statistic evaluation of the wound healing area 0, 2, and 4 days after application of I18 or placebo to wound area. Skin biopsies (4-5 mm) were taken at Day 0 of young and old C57Bl6 mice and lesions were either treated with I18 inhibitor or DMSO. […] This trend further increased at Day 4.
Skin-biopsies (4-5 mm) were taken at Day 0 (D0) and lesions were either treated with I18 compound (FIG. 4, right panel) or DMSO as control (FIG. 4, left panel) by intradermal injection [50 μM].

[2] = Homo sapiens, NCI-H1299, p53 induced with doxycycline 0.5 μg/ml

| SMILES | IC50 (p21 promoter; [2]) | further results |
| --- | --- | --- |
| COc1ccc(C2C(C#N)=C(N)Oc3c2ccc2ccccc32)cc1C (centres unmarked) [A6, 2-amino-4-(4-methoxy-3-methylphenyl)-4H-benzo[h]chromene-3-carbonitrile] | 1.13 µM |  |
| CCOC(=O)c1ccc(Nc2nc3nonc3nc2Nc2cccc(C)c2C)cc1 [A13, Ethyl-4-[[5-(2,3-dimethylanilino)-[1,2,5]oxadiazolo[3,4-b]pyrazin-6-yl]amino]benzoate] | 0.76 µM |  |
| COc1ccc(C(=O)Nc2nc(NC(=O)c3ccc(F)cc3)nn2-c2ccccc2)cc1 [E6, N-[5-[(4-Fluorobenzoyl)amino]-2-phenyl-1,2,4-triazol-3-y1]-4-methoxybenzamide] |  | IC50 (p21 promoter; p53 induced with doxycycline 0.5 μg/ml): 0.49 µM |
| NS(=O)(=O)c1ccc(CCNc2ncnc3c2c(-c2ccccc2)cn3-c2ccc(Br)cc2)cc1 [F3, 4-[2-[[7-(4-Bromophenyl)-5-phenylpyrrolo[2,3-d]pyrimidin-4-yl]amino]ethyl]benzenesulfonamide] | 6.08 µM |  |
| Cc1ccc2[nH]c3c(c2c1)CCCC3Nc1ccccc1 (centres unmarked) [I18, 6-methyl-N-phenyl-2,3,4,9-tetrahydro-1H-carbazol-1-amine] | 0.17 µM | reduction of p21-mRNA expression relative to control (DMSO-treated animals) (p21-mRNA): over 2 fold; wound healing in old treated mice versus p21-deficient mice ([1]; after 4 days, old mice): comparable to p21-deficient mice; wound healing of old mice compared to mock treated control mice of the same age ([1]; day 2, old C57Bl6 mice, trend further increased at day 4): significantly improved; wound healing compared to DMSO treated control mice ([1]; day 2 and 4, skin biopsies 4-5 mm, intradermal injection 50 μM): significantly improved |
| O=C(Nc1ccc(OCC(F)(F)C(F)F)c(C(F)(F)F)c1)c1ccccc1O [K2, 2-Hydroxy-N-[4-(2,2,3,3-tetrafluoropropoxy)-3-(trifluoromethyl)phenyl)benzamide] | 1.72 µM |  |
| Cc1c(Br)ccc(Nc2c([N+](=O)[O-])cc3c4c(cccc24)C(=O)N(CCO)C3=O)c1C [M3, 6-(4-Bromo-2,3-dimethylanilino)-2-(2-hydroxyethyl)-5-nitrobenzo[de]isoquinoline-1,3-dione] | 3.58 µM |  |
| CC(C)c1ccc(-c2c(C#N)c(N)n3c(nc4ccccc43)c2C#N)cc1 [N13, 1-Amino-3-(4-propan-2-ylphenyl)pyrido[1,2-a]benzimidazole-2,4-dicarbonitrile] | 1.11 µM |  |
| CCc1ccc2c(c1)C1(NN=C(c3cccc4ccccc34)S1)C(=O)N2 (centres unmarked) [O6, 5-Ethyl-5′naphthalen-1-ylspiro[1H-indole-3,2′-3H-1,3,4-thiadiazole]-2-one] | 3.68 µM |  |
| O=c1c2ccccc2c2nccc3c4cc(O)ccc4n1c32 [P21, 5-hydroxy-9H-benzo[c]indolo[3,2,1-ij][1,5]naphthyridin-9-one] | 1.07 µM |  |
